Entries after “also recorded” stand apart in the source; their conditions may differ.
Tests used:
hERG [1] = settings: previous studies; cited from earlier work
CYP3A = assay: CYP inhibition, human liver microsomes; settings: substrate midazolam
[2] = clinical trials, compared to placebo group; cited from earlier work
C57BL/6J mice = assay: Amphetamine-induced hyperactivity, open field activity; settings: 3 mg/kg AMPH; for AMPH-stimulated hyperlocomotion: 10 or 20 mg/kg ip, relative to Veh–AMPH group; for AMPH-stimulated hyperlocomotion at 20 mg/kg: 20 mg/kg ip
[3] = Brain penetration study in CD1 mice; format: in vivo; settings: CD1, mouse, intraperitoneal, 10 mg/kg
human 5-HT2B [4] = molecular target: T1, human 5-HT2B (Homo sapiens, UniProt P41595); assay: Calcium flux
human 5-HT2B [5] = molecular target: T1, human 5-HT2B; settings: cited from earlier work
[6] = cited from earlier work
5-HT2C receptor = molecular target: T2, 5-HT2C receptor (Homo sapiens, UniProt P28335); assay: PDSP binding study, 5-HT2C
T2 sequence (P28335 33-458): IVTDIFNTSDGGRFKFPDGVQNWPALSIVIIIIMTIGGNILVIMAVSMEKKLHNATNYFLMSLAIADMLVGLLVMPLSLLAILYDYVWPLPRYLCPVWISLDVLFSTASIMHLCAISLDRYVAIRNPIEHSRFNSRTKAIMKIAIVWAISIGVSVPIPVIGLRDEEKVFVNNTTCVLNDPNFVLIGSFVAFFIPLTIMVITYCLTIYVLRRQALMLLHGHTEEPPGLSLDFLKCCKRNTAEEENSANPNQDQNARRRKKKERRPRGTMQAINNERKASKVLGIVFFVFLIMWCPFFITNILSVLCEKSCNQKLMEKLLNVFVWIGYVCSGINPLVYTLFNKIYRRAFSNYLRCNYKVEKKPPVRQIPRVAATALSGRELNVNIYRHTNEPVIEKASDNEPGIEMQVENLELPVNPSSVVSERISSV

human 5-HT2B [7] = molecular target: T1, human 5-HT2B; assay: PDSP binding study, 5-HT2B
[8] = test system: TA98, TA100, TA1535, and TA1537 strains; format: cell-based; settings: with/without S9, 10, 50, and 100 µM
hERG [9] = molecular target: hERG (Homo sapiens, UniProt Q12809); assay: hERG inhibition, CHO cells, automated patch-clamp; format: cell-based
5-HT2A = settings: cited from earlier work
human 5-HT2A = human 5-HT2A (Homo sapiens, UniProt P28223); assay: Calcium flux; settings: from functional EC50 values
Chain of human 5-HT2A (P28223 whole entry): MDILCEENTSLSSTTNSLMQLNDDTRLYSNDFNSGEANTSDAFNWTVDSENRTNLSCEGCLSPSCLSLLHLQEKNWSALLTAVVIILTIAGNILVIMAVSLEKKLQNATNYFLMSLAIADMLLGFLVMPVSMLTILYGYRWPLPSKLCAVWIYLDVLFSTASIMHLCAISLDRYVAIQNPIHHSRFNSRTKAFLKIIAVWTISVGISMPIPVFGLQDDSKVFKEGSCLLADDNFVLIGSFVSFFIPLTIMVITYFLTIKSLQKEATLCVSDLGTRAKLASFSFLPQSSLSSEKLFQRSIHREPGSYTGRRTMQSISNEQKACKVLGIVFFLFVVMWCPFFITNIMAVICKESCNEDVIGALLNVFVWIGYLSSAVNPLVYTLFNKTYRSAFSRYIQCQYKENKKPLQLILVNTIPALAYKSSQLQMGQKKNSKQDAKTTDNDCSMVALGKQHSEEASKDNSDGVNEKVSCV

T1 sequence (P41595 whole entry): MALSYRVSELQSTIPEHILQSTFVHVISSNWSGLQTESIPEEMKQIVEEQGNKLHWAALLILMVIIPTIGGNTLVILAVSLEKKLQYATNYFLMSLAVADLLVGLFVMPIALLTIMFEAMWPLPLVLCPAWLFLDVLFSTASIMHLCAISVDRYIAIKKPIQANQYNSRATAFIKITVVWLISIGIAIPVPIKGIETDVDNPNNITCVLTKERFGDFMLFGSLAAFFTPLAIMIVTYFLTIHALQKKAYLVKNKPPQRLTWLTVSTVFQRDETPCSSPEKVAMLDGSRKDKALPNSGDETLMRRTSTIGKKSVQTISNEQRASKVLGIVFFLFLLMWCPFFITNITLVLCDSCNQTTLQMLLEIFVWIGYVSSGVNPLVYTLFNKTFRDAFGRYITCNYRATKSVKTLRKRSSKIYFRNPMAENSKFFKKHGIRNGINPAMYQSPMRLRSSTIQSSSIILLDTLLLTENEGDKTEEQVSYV
Chain of hERG (Homo sapiens, UniProt Q12809) (Q12809 whole entry): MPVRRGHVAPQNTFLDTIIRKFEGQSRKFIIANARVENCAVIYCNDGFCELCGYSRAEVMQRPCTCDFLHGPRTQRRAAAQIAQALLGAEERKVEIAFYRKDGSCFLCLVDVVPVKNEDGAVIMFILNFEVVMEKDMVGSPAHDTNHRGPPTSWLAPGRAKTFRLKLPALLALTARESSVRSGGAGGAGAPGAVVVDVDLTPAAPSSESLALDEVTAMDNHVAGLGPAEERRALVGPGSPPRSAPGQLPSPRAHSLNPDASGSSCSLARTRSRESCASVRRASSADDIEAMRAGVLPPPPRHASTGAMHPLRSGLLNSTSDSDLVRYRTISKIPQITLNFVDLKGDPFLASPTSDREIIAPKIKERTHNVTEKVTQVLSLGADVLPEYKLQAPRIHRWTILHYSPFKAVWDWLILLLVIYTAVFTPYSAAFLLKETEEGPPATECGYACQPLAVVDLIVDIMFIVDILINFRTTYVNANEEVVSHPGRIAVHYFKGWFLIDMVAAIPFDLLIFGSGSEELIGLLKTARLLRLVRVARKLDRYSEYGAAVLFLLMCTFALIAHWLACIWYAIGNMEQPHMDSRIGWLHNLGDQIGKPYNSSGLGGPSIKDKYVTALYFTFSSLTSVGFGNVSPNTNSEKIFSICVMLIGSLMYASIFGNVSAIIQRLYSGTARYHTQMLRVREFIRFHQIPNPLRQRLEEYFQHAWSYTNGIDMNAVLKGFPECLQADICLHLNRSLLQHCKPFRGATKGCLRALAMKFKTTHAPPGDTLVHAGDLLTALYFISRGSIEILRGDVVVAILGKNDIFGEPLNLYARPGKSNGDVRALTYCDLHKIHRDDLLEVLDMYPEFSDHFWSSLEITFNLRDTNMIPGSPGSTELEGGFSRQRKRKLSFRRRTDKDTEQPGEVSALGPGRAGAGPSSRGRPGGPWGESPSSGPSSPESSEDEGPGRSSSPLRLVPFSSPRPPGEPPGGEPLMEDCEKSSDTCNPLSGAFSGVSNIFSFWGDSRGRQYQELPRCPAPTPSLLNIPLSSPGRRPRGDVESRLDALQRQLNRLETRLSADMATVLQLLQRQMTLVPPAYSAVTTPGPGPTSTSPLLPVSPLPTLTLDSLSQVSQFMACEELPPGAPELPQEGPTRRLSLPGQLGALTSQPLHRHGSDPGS

For `NC[C@H]1C[C@@H]1c1cc(F)ccc1OCC1CC1` [Compound 8], the hERG inhibition (hERG [1]) is given as “no hERG inhibition”.

For `C=CCOc1ccc(Cl)cc1[C@H]1C[C@@H]1CN.O=C(O)C(F)(F)F` [(+)-13h], the “CYP inhibition at 10 µM, 3A” value (CYP3A) was 27%.

For `C[C@H]1CNCCc2ccc(Cl)cc21` [lorcaserin], the “incidence of cardiac valve disorders” value [2] is listed as “higher incidence of cardiac valve disorders”.

With `Cl.NC[C@H]1C[C@@H]1c1cc(Cl)ccc1OCCF` [(+)-13l] the AMPH-stimulated hyperlocomotion (C57BL/6J mice) was “not differentiated by dose”, the concentration at 0.5 h ([3]; brain) was 12800 ng/g and the concentration at 2 h ([3]; brain) was 13400 ng/g. The concentration at 0.5 h ([3]; plasma) was 1200 ng/mL and the concentration at 2 h ([3]; plasma) was 874 ng/mL.

For `C=C(C)COc1ccc(Cl)cc1[C@H]1C[C@@H]1CN` [(+)-13k], the EC50 (human 5-HT2B [4]) was 6090 nM and the Emax (human 5-HT2B [4]; read-out: Emax 5-HT2B, normalized to internal 5-HT reference) was 39%.

In the case of `Clc1cccc(COc2cncc(N3CCNCC3)n2)c1` [CP-809,101, 2-(3-chlorobenzyloxy)-6-(piperazinyl)-pyrazine], the “5-HT2C selectivity against 5-HT2B” value (human 5-HT2B [5]) is given as “about 600 fold” and the genotoxicity [6] is given as “genotoxicity”.

For `C=CCOc1ccc(F)cc1[C@H]1C[C@@H]1CN.Cl` [(+)-16b, (+)-((1S,2S)-2-(2-(Allyloxy)-5-fluorophenyl)cyclopropyl)-methanamine Hydrochloride], the Ki (5-HT2C receptor) was 30 to 50 nM, the “AMPH-stimulated hyperlocomotion at 20 mg/kg” value (C57BL/6J mice) was “most efficacious; also recorded: completely reversed” and the AMPH-stimulated hyperlocomotion (C57BL/6J mice) was “dose dependently suppressed the hyperactivity”. For the same compound, the Ki (human 5-HT2B [7]) was 30 to 50 nM.

For `C=C(F)COc1ccc(Cl)cc1[C@H]1C[C@@H]1CN.Cl` [(+)-13j], the Ames fluctuation test [8] was “negative”, the “AMPH-stimulated hyperlocomotion at 20 mg/kg” value (C57BL/6J mice) was “most efficacious” and the AMPH-stimulated hyperlocomotion (C57BL/6J mice) was “dose dependently suppressed the hyperactivity”. The concentration at 0.5 h ([3]; brain) was 17500 ng/g, the concentration at 2 h ([3]; brain) was 14700 ng/g and the concentration at 0.5 h ([3]; plasma) was 1440 ng/mL. The concentration at 2 h ([3]; plasma) was 903 ng/mL and the “hERG IC50” value (hERG [9]) was “moderate inhibition”.

In the case of `c1cc2c3c(c1)[C@H]1CCC[C@H]1N3CCNC2` [WAY-163909, (7bR,10aR)-1,2,3,4,8,9,10,10a–octahydro-7bH-cyclopenta-[b][1,4]diazepino[6,7,1-hi]indole], the “agonist activity at 5-HT2A” value (5-HT2A) is listed as “no agonist activity”.

In the case of `Cl.NC[C@H]1C[C@@H]1c1cc(F)ccc1OCCF` [(+)-16d, (+)-((1S,2S)-2-(5-Fluoro-2-(2-fluoroethoxy)phenyl)-cyclopropyl)methanamine Hydrochloride], the Ki (5-HT2C receptor) is reported as 30 to 50 nM, the “selectivity for 5-HT2C against 5-HT2A” value (human 5-HT2A) is reported as over 100 fold and the AMPH-stimulated hyperlocomotion (C57BL/6J mice) is reported as “not differentiated by dose”. The Ki (human 5-HT2B [7]) was 30 to 50 nM.
